The subject of data set [1] is A549 cells (human lung carcinoma). Nature of the data set: MTT cytotoxicity assay, A549. In kind it is cell-based. The method, then: (§1) The α-lipoic acid (LA) and the functionalized N^∧N-LA ligand were also evaluated for comparison. […]
(§2) Cell lines and culture conditions
(§3) A549, A549R, MCF-7, A2780, HeLa and LO2 cells were obtained from Experimental Animal Center of Sun Yat-Sen University (Guangzhou, China). Cells were routinely cultured in DMEM (Dulbecco’s modified Eagle’s medium, Gibco BRL) or RPMI 1640 (Roswell Park Memorial Institute medium 1640, Gibco BRL) medium containing 10% FBS (fetal bovine serum, Gibco BRL), 100 μg/mL streptomycin, and 100 U/mL penicillin (Gibco BRL). The cells were cultured in tissue culture flasks in a humidified incubator (BB 150 CO2 incubator, Thermo Fisher Scientific, USA), which provided an atmosphere of 5% CO2 and 95% air at a constant temperature of 37 °C. Cisplatin-resistant A549R […]
(§4) cells were cultured in RPMI 1640 with additional cisplatin to maintain the drug resistance.
(§5) Cytotoxicity assay (MTT assay)
(§6) The cytotoxicity of LA, N^N-LA and complexes synthesized towards various cancer cell lines was determined by MTT assay. After plating 5000 cells per well in 96-well plates, the cells were pre-incubated in drug-free media for 24 h at 37 °C to grow to confluence. The complexes were dissolved in DMSO (1%, v/v) just before the experiments, and diluted with fresh media immediately. Then, cells […]
(§7) that, 20 μL of MTT solution (5 mg/mL) was added to each well, and the plates were incubated for an additional 4 h. The medium was carefully removed and 150 μL DMSO was added per well. The plates were incubated for 10 min with shaking. The absorbance at 595 nm was measured using a microplate reader (LabServ K3, Part of Thermo Fisher Scientific, USA). Each well was triplicated to gain the mean values. IC 50 values quoted are mean ± SEM. […]

For data set [2], the system named is HeLa cells (human cervical carcinoma). Nature of the data set: MTT cytotoxicity assay, HeLa. In kind it is cell-based. The method, then:
as §1, §2, §3, §4, §5, §6, §7
On the technique in general: Formazan colour is commonly taken as a measure of viable cells.

Data set [3] has as its system LO2 cells (human normal liver). Nature of the data set: MTT cytotoxicity assay, LO2. In kind it is cell-based. As for the experimental part: as §1, §2, §3, §4, §5
(§8) The cytotoxicity of LA, N^N-LA and complexes synthesized towards various cancer cell lines was determined by MTT assay. After plating 5000 cells per well in 96-well plates, the cells were pre-incubated in drug-free media for 24 h at 37 °C to grow to confluence. The complexes were dissolved in DMSO (1%, v/v) just before the experiments, and diluted with fresh media immediately. Then, cells were incubated with a series of different concentrations of the tested complexes for 44 h at 37 °C. After that, 20 μL of MTT solution (5 mg/mL) was added to each well, and the plates were incubated for an additional 4 h. The medium was carefully removed and 150 μL DMSO was added per well. The plates were incubated for 10 min with shaking. The absorbance at 595 nm was measured using a microplate reader (LabServ K3, Part of Thermo Fisher Scientific, USA). Each well was triplicated to gain the mean values. IC 50 values quoted are mean ± SEM. […]

Data set [4] relates to A2780 cells (epithelial ovarian carcinoma). Nature of the data set: MTT cytotoxicity assay, A2780. In kind it is cell-based. The method, then:
as §1, §2, §3, §4, §5, §8

The test system of data set [5] is MCF-7 cells (human breast carcinoma). As to the kind of experiment: MTT cytotoxicity assay, MCF-7. In kind it is cell-based. As for the experimental part: as §1, §2, §3, §4, §5, §8
Data set [6] has as its system A549R cells (cisplatin-resistant A549). Nature of the data set: MTT cytotoxicity assay, A549R. The data set is classed as cell-based, human. The method, then:
as §1, §2, §3, §4, §5, §8

Data set [7] deals with tested cancer cell lines. As to the kind of experiment: MTT cytotoxicity assay, summary over the tested cell lines. The data set is classed as cell-based. As to conditions: Homo sapiens, 48 h, read-out: IC50 over all tested cancer cell lines. The method, then:
as §1, §2, §3, §4, §5
The cytotoxicity of LA, N^N-LA and complexes synthesized towards various cancer cell lines was determined by MTT assay. After plating 5000 cells per well in 96-well plates, the cells were pre-incubated in drug-free media for 24 h at 37 °C to grow to confluence. […] The absorbance at 595 nm was measured using a microplate reader (LabServ K3, Part of Thermo Fisher Scientific, USA). […]

Data set [8] concerns A549 cells. As to conditions: cited from earlier work.
For data set [9] the following is noted: reported value; cited from earlier work.
In data set [10] the test system is HeLa cells (human cervical carcinoma). Set-up: method as in earlier work. As to conditions: 24 h incubation; ref 29 (supplementary reference 9); cited from earlier work.
The subject of data set [11] is MCF-7 cells (human breast carcinoma). The arrangement: method as in earlier work. As to conditions: 24 h incubation; ref 29 (supplementary reference 9); cited from earlier work.
In data set [12] the test system is A549 cells (human lung carcinoma). Set-up: method as in earlier work. As to conditions: 24 h incubation; ref 29 (supplementary reference 9); cited from earlier work.
Data set [13] deals with MCF-7 cells (human breast carcinoma). As to the kind of experiment: MTT cytotoxicity assay, MCF-7. In kind it is cell-based. As to conditions: 24 h incubation.
The mark [14] stands for this setting: Homo sapiens, A549, 48 h incubation.

Read-outs that look alike come from different tables or passages of the source. Some results are limits rather than exact numbers.

Usually IC50 stands for the concentration that inhibits the measured activity by half. For `O=C(O)CCCCC1CCSS1` (stereo not drawn) [LA, α-lipoic acid], the IC50 in data set [1] (setting [14]) is > 200 µM; in data set [2] (Homo sapiens, HeLa, 48 h incubation), > 200 µM; in data set [3] (Homo sapiens, L02, 48 h incubation), > 200 µM; in data set [4] (Homo sapiens, A2780, 48 h incubation), > 200 µM; in [5] (Homo sapiens, MCF7, 48 h incubation) it was > 200 µM; in [6] (setting [14]) it was > 200 µM. Besides, the IC50 in data set [7] was > 200 µM.
As for `Cc1ccnc(-c2cc(CNC(=O)CCCCC3CCSS3)ccn2)c1` (stereo not drawn) [N^∧N-LA], the IC50 is > 200 µM in [1] (48 h incubation); 67.5 ± 5 µM in data set [2] (48 h incubation); 96 ± 6.7 µM in data set [3] (48 h incubation); 84.5 ± 4.1 µM in [4] (48 h incubation); 139 ± 2.2 µM in [5] (48 h incubation); > 200 µM in data set [6] (48 h incubation).
As for `C(=NC(c1ccccc1)(c1ccccc1)c1ccccc1)c1ccccn1.Cc1c(C)c(C)[c-](C)c1C.F[P-](F)(F)(F)(F)F.[Cl-].[Ir+3]` [[(η^5-Cp*)Ir(N^∧N)Cl]PF6, [(η^5-Cp*)Ir(N^∧N)Cl]PF6 (N^∧N = (triphenylmethyl)(pyridine-2-ylmethylene)amine)], the “Cellular uptake in A549 cells” value in [8] is 4.5 ng per 10^6 cells. Further, the Hydrolysis rate constant in data set [9] is 0.0084 min⁻¹.
As to `Cc1ccnc(-c2cc(CN)ccn2)c1.F[P-](F)(F)(F)(F)F.[Ir+3].[c-]1ccccc1-c1ccccn1.[c-]1ccccc1-c1ccccn1` [Ir-NH2, [Ir(C^∧N)2(N^∧N-NH2)]PF6], the IC50 in data set [1] (48 h incubation) was 11.2 ± 0.65 µM; in data set [2] (48 h incubation), 21 ± 0.95 µM; in [3] (48 h incubation), 8.97 ± 0.55 µM; in data set [4] (48 h incubation) it was 8.08 ± 0.2 µM; in [5] (48 h incubation), 11.6 ± 0.48 µM; in data set [6] (48 h incubation), 19 ± 0.59 µM.
`N.N.[Cl][Pt][Cl]` [cis-Pt, cisplatin, reference compound]: the IC50 was 20.2 ± 1.8 µM in data set [10]; 31.4 ± 3 µM in [11]; 22.4 ± 1.5 µM in [1] (24 h incubation); 10.5 ± 0.63 µM in data set [1] (48 h incubation); 38.6 ± 0.9 µM in data set [12]; 17.9 ± 0.47 µM in [2] (24 h incubation). In addition, the IC50 came out at 7.59 ± 0.46 µM in [2] (48 h incubation); 3.97 ± 0.25 µM in data set [3] (48 h incubation); 4.32 ± 0.25 µM in [4] (48 h incubation); 23.5 ± 0.82 µM in data set [13]; 8.7 ± 0.57 µM in [5] (48 h incubation); 17.9 ± 0.77 µM in data set [6] (48 h incubation).

The record behind these values is paper PMC9049077, “Unveiling the anti-cancer mechanism for half-sandwich and cyclometalated Ir(III)-based complexes with functionalized α-lipoic acid” (RSC Advances, 2020).
